Measurements as given in the pKa sets of Baltruschat and Czodrowski (2020).

CC[C@@H]1C(=O)OC[C@@H]1Cc1cncn1C
pKa (basic group): 6.99

O=C(O)CC[C@@H]1NC(=O)CNC1=O
pKa (acidic group): 4.36

Clc1c(Cl)c(Cl)c2[nH]nnc2c1Cl
pKa (acidic group): 4.52

S=C(Nc1ccc(Br)cc1)c1cccc(Br)c1
pKa (acidic group): 9.96

O=C(Cc1ccccc1)c1cc[n+](Cc2cccc([N+](=O)[O-])c2)cc1
pKa (acidic group): 8.68

Cc1cccc(C(C)[N+](=O)[O-])c1 (stereo not drawn)
pKa (acidic group): 7.49

CCC(O)C(C(=O)O)c1ccc(-c2ccccc2)cc1 (stereo not drawn)
pKa (acidic group): 4.16

O=C(O)CP
pKa (acidic group): 4.07

COc1cccc(/N=C/N(C)C)c1
pKa (basic group): 8.6

Cn1cncc1C[C@H]([NH3+])C(=O)[O-]
pKa (basic group): 6.53

O=C1C=Cc2ccccc2/C1=N\O
pKa (acidic group): 7.77

Oc1ccc2ccccc2[nH+]1
pKa (acidic group): 0.31

Cc1cc(N)cc(C)c1C
pKa (basic group): 5.15

C[NH2+]CC(=O)c1ccc(O)cc1
pKa (acidic group): 7.7

NCc1ccc(S(N)(=O)=O)cc1
pKa (acidic group): 10.2
pKa (basic group): 8.35

O=S(=O)([O-])c1cc(O)cc2cn[nH]c12
pKa (acidic group): 9.65

CN(C)CCC(C#N)(c1ccccc1)c1ccccc1
pKa (basic group): 8.31

Cc1ccc(-c2ncc(-c3ccc(Br)cc3)o2)cc1
pKa (basic group): 0.87

O=c1cccccc1S
pKa (acidic group): 5.9

Brc1cnc2ccccc2c1
pKa (basic group): -0.44

Cc1nn(-c2ccccc2)cc1C(=O)O
pKa (acidic group): 4.58

CNC(C)C(=O)[O-] (stereo not drawn)
pKa (basic group): 10.2

Nc1cnccn1
pKa (basic group): 3.14

C1CNC1
pKa (basic group): 11.3

CNC(=O)/C=C\C(=O)O
pKa (acidic group): 3.98

CN(C)Cc1cc(Br)ccc1[O-]
pKa (basic group): 10.7

Cc1cc(C)c(C)nn1
pKa (basic group): 4.81

Nc1cccc([N+](=O)[O-])c1
pKa (basic group): 2.6

NCCCCN
pKa (basic group): 10.6

CC(C#N)(Cc1ccccc1)C(=O)O (stereo not drawn)
pKa (acidic group): 2.29

Cc1ccc2c(c1)sc(-c1ccc(N(C)C)cc1)[n+]2C
pKa (basic group): 2.69

O=c1nc([O-])c2ncn([C@H]3O[C@@H](CO)[C@H](O)[C@@H]3O)c2[nH]1
pKa (acidic group): 13

CN=C1C(C)(C)c2ccccc2C1(C)C
pKa (basic group): 7

Cc1nc(C(=O)[O-])cs1
pKa (basic group): 3.9

CC[C@@H](C(=O)O)[C@@]1(O)C[C@H]2CC[C@@H]1C2
pKa (acidic group): 4.26

COc1ccc2c3c1O[C@H]1CCC[C@H]4[C@@H]([C@@H]2O)N(C)CC[C@]314
pKa (basic group): 9.41

CCN(CC)C(=S)NC(=O)c1cccc(C)c1
pKa (acidic group): 8.36

NC(Cc1ccccc1)c1nnn[n-]1 (stereo not drawn)
pKa (basic group): 8.18

Cc1cc(=O)oc2ccc(O)cc12
pKa (acidic group): 9.14

C=CC(C)(C)N(C)C(C)(C)C
pKa (basic group): 11.3

Cn1cc(N)cn1
pKa (basic group): 5.52

c1ccc(-c2cc(-c3ccccc3)c(NCC[NH+]3CCOCC3)nn2)cc1
pKa (basic group): 3.36

NCCCCBr
pKa (basic group): 10

CSc1nc(N)c2[nH]cnc2n1
pKa (acidic group): 10.2
pKa (basic group): 3.1

c1cnccn1
pKa (basic group): 0.57

O=C(O)C12CC3(F)CC(F)(CC(F)(C3)C1)C2
pKa (acidic group): 3.24

C[NH+]1C[C@@H](C(=O)O)C[C@@]2(O)c3cccc4[nH]cc(c34)C[C@H]12
pKa (acidic group): 3.38

[NH3+][C@@H](Cc1nc[nH]c1I)C(=O)[O-]
pKa (basic group): 4.18

C=C(C)C(=O)NCCN(CC)CC
pKa (basic group): 9.37

CC(C)c1ccncc1
pKa (basic group): 6.02

O=C(O)[C@H]1CCCC[C@@H]1O
pKa (acidic group): 4.68

ONc1ccc(O)cc1
pKa (acidic group): 9.83

Cc1ccc2c(c1)C(CC[NH3+])CN2 (stereo not drawn)
pKa (basic group): 4.1

CCc1ccc(OC)c(C(=O)NC[C@H]2CCCN2CC)c1[O-]
pKa (basic group): 9.54

COc1cc2c(cc1OC)[C@]13CCN4CC5=CCO[C@H]6CC(=O)N2[C@H]1C6[C@@]5(S(=O)(=O)[O-])C[C@H]43 (stereo partly drawn)
pKa (basic group): 7.45

Cc1ccc([Se](=O)O)cc1
pKa (acidic group): 4.88

O=C(O)c1cc(Cl)cc([N+](=O)[O-])c1
pKa (acidic group): 2.17

Cn1cnc2ccccc21
pKa (basic group): 5.65

NC(=O)c1cccnc1
pKa (acidic group): 13.5
pKa (basic group): 3.32

O=CC1=CC=CC1
pKa (acidic group): 7.4

O=Cc1cccc(Cl)c1O
pKa (acidic group): 6.61

Nc1ccc2cn[nH]c2c1
pKa (acidic group): 14.3

CNc1cc[n+](C)c([O-])n1
pKa (basic group): 4.47

Cc1nc2c(N)cccc2[nH]1
pKa (acidic group): 12.3
pKa (basic group): 8.1
